No end group written: not given here.
Test system: HLA-A*0201 positive patients with NSCLC expressing TERT
Experiment: Vx-001-201 randomized double blind phase IIb clinical trial (OS, TTF, 12 months survival)
Type: in vivo, human
Settings: for OS (months) / 12 months OS / 12 months OS (%) / Median TTF (months) / Median survival (months): Vx-001 arm; for HR (OS) / HR (TTF): Vx-001 vs placebo
From the text: The Vx-001-201 study is a randomized, double blind multicenter study done in 70 centers in France, Germany, Spain, Italy, Greece, Poland, Romania and Czech Republic. Key eligibility criteria were a) non small cell lung cancer (NSCLC), b) stage IV or recurrent stage I-III, c) disease control after platinum based first line chemotherapy according to RECIST 1.1 criteria, d) HLA-A*0201 positivity, e) tumors expressing TElomerase Reverse Transcriptase (TERT), f) ECOG 0 or 1 g) absence of brain metastasis.
a) Principal endpoint: overall survival (OS) measured from randomization
b) Secondary endpoints: • Time to Treatment Failure (TTF) measured from randomization • OS at 12 months
Patients who fulfilled all inclusion criteria were randomized within 4 weeks after the end of first line chemotherapy.
The vaccination protocol consisted in six vaccinations at three weeks interval. The optimized Vx-001/TERT572Y was used in the first two vaccinations and the native Vx-001/TERT572 in the following four vaccinations. Patients who continued controlling their disease after the sixth vaccination received boost vaccination with the Vx-001/TERT572 every three months. Vaccination was stopped at disease progression (FIG. 1).
The primary and secondary endpoints were analysed in the Full Analysis Set composed of all patients who fulfilled the […] five main criteria a) NSCLC, b) stage IV or recurrent stage I-III, and c) disease control after first line chemotherapy, d) HLA-A*0201 positivity and e) TERT expressing tumors.
We used the Kaplan-Meier method to estimate OS and TTF in each arm and a Cox proportional hazards regression model to estimate Hazard Ratio (HR) relating OS and TTF to the treatment effect.

[1] = never-smokers and light-smokers (≤25 years, stopped or not), SQ (n = 14)
[2] = never-smokers and light-smokers (≤25 years, stopped or not), Stage IV (n = 51)
[3] = never-smokers and light-smokers (≤25 years, stopped or not), natural immunity No (n = 37)
[4] = never-smokers and light-smokers (≤25 years, stopped or not), natural immunity Yes (n = 15)
[5] = never-smokers and light-smokers (≤25 years, stopped or not), response to treatment OS (n = 28)
[6] = never-smokers and light-smokers (≤25 years, stopped or not), response to treatment SD (n = 32)
[7] = never-smokers or former light-smokers (≤25 years), <65 years (n = 24)
[8] = never-smokers or former light-smokers (≤25 years), >65 years (n = 31)
[9] = never-smokers or former light-smokers (≤25 years), CARBO (n = 37)
[10] = never-smokers or former light-smokers (≤25 years), CDDP (n = 18)
[11] = never-smokers or former light-smokers (≤25 years), Female (n = 23)
[12] = never-smokers or former light-smokers (≤25 years), MH + NSQ (n = 42)
[13] = never-smokers or former light-smokers (≤25 years), Male (n = 32)
[14] = never-smokers or former light-smokers (≤25 years), SQ (n = 13)
[15] = never-smokers or former light-smokers (≤25 years), natural immunity No (n = 33)
[16] = never-smokers or former light-smokers (≤25 years), natural immunity Yes (n = 14)
[17] = never-smokers or former light-smokers (≤25 years), response to chemotherapy OR (n = 26)
[18] = never-smokers or former light-smokers (≤25 years), response to chemotherapy SD (n = 29)
[19] = never-smokers or former light-smokers (≤25 years), stable disease SD after first-line chemotherapy (n = 29)

Vx-001: vaccine composed of two nine-amino-acid peptides, TERT572 (SEQ ID No: 1) and TERT572Y (SEQ ID No: 2), administered separately with adjuvant Montanide ISA51 VG (chain 1 RLFFYRKSV; chain 2 YLFFYRKSV; not fully specified)
OS (months) [1]: 14.1 months
HR (OS) [1]: 0.81
12 months OS [2]: 69.2%
OS (months) [2]: 16.2 months
HR (OS) [2]: 0.44
12 months OS [3]: 83.0%
OS (months) [3]: 20.7 months
HR (OS) [3]: 0.27
12 months OS [4]: 66.0%
OS (months) [4]: 15.3 months
HR (OS) [4]: 0.87
12 months OS [5]: 63.6%
OS (months) [5]: 15.3 months
HR (OS) [5]: 0.91
12 months OS [6]: 75.0%
OS (months) [6]: 24.7 months
HR (OS) [6]: 0.34
12 months OS (%) [7]: 77%
Median TTF (months) [7]: 2.9 months
Median survival (months) [7]: 20.2 months
HR (OS) [7]: 0.46
HR (TTF) [7]: 1.07
12 months OS (%) [8]: 69.2%
Median TTF (months) [8]: 4.6 months
Median survival (months) [8]: 15.3 months
HR (OS) [8]: 0.64
HR (TTF) [8]: 0.71
12 months OS (%) [9]: 64.7%
Median TTF (months) [9]: 2.9 months
Median survival (months) [9]: 15.3 months
HR (OS) [9]: 0.63
HR (TTF) [9]: 0.90
12 months OS (%) [10]: 88.8%
Median TTF (months) [10]: 5.6 months
Median survival (months) [10]: 24.7 months
HR (OS) [10]: 0.50
HR (TTF) [10]: 0.87
12 months OS (%) [11]: 66.6%
Median TTF (months) [11]: 4.2 months
Median survival (months) [11]: 13.3 months
HR (OS) [11]: 0.89
HR (TTF) [11]: 0.98
12 months OS (%) [12]: 73.7%
Median TTF (months) [12]: 4.2 months
Median survival (months) [12]: 16.2 months
HR (OS) [12]: 0.53
HR (TTF) [12]: 0.89
12 months OS (%) [13]: 78.6%
Median TTF (months) [13]: 2.9 months
Median survival (months) [13]: 24.7 months
HR (TTF) [13]: 0.82
12 months OS (%) [14]: 71.4%
Median TTF (months) [14]: 2.9 months
Median survival (months) [14]: 14.1 months
HR (OS) [14]: 0.89
HR (TTF) [14]: 0.81
12 months OS (%) [15]: 82.3%
Median TTF (months) [15]: 5.6 months
Median survival (months) [15]: 20.7 months
HR (TTF) [15]: 0.43
12 months OS (%) [16]: 66.6%
Median TTF (months) [16]: 2.4 months
Median survival (months) [16]: 15.3 months
HR (OS) [16]: 0.90
HR (TTF) [16]: 1.86
12 months OS (%) [17]: 72.7%
Median TTF (months) [17]: 2.8 months
Median survival (months) [17]: 15.3 months
HR (OS) [17]: 0.96
HR (TTF) [17]: 1.33
Median TTF (months) [18]: 3.6 months
HR (TTF) [18]: 0.58
12 months OS (%) [19]: 73.3%
Median survival (months) [19]: 24.7 months
Effect on OS (in words) (never/light-smokers (≤25 years, stopped or not), Table 7 population): significantly prolonged OS

Reference: patent US20200079819A1, “Use of a Vaccine Targeting a Cryptic Tert Epitope, for Treating Lung Cancer in a HLA-A*0201-Positive Never-Smoker or Light-Former Smoker Patient” (Vaxon Biotech, priority 2017, published 2020)
